Results as given in patent US9802937B2, “Substituted pyrazolo{4,3-D}pyrimidines as kinase inhibitors” (ORIGENIS GMBH, priority 2011, dated 2017).

Assays:
SYK kinase = target: T1, SYK kinase (Homo sapiens, UniProt P43405); assay: SYK Assay (OMNIA KINASE ASSAY, SOX peptide fluorescence); assay type: biochemical; conditions: apparent Ki calculated from the IC50 using the Cheng-Prusoff equation; 1 mM ATP, 30° C.; read-out: SYK Activities: Ki
T1 construct: purchased Invitrogen, Carlsbad
Procedure, shortened: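 Continuous Omnia assay: SYK phosphorylation of SOX-labelled Tyr 7 peptide (10 µM) with 1 mM ATP and 0.2 mM DTT at 30 °C. Fluorescence (ex 360/em 485 nm) read every 30 s for 30 min. Reaction velocity versus inhibitor concentration gives IC50, converted to apparent Ki by Cheng-Prusoff.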

LRRK2 = LRRK2 (Homo sapiens, UniProt Q5S007); assay: LRRK2-LRRK2 G2019S-Assay (LanthaScreen Eu Kinase Binding Assay); conditions: 5 nM LRRK2 or their mutants, 10 nM tracer 236, RT 1 h; read-out: LRRK2 Activities: IC50
Procedure, shortened: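 TR-FRET tracer-displacement binding assay with 5 nM LRRK2 or mutant, 2 nM Eu-anti-GST antibody and 10 nM tracer 236 in kinase buffer A. Incubated 1 h at RT; 665/615 nm emission ratio read (ex 340 nm). IC50 from variable-slope sigmoidal fit.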

MYLK = MYLK (Homo sapiens, UniProt Q15746); assay: MYLK Assay (LanthaScreen Eu Kinase Binding Assay); conditions: 5 nM MYLK, 30 nM tracer 236, RT 1 h; read-out: MYLK Activities: IC50
Procedure, shortened: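 TR-FRET tracer displacement with 5 nM GST-MYLK, 2 nM Eu-anti-GST antibody and 30 nM tracer 236 in kinase buffer A, 1 h at RT. Emission ratio 665/615 nm (ex 340 nm) plotted against inhibitor concentration, IC50 from a variable-slope sigmoidal fit.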

Syk = conditions: various stimuli, including FcepsilonR1 and BCR induced Syk activation; cited from earlier work
JAK kinases = conditions: cited from earlier work
[1] = tested on: lymphoma cell lines and primary human lymphoma samples; conditions: cited from earlier work
[2] = tested on: refractory NHL and chronic lymphocytic leukemia; conditions: phase II; cited from earlier work

Chain of LRRK2 (Q5S007 970-2527 limits assumed): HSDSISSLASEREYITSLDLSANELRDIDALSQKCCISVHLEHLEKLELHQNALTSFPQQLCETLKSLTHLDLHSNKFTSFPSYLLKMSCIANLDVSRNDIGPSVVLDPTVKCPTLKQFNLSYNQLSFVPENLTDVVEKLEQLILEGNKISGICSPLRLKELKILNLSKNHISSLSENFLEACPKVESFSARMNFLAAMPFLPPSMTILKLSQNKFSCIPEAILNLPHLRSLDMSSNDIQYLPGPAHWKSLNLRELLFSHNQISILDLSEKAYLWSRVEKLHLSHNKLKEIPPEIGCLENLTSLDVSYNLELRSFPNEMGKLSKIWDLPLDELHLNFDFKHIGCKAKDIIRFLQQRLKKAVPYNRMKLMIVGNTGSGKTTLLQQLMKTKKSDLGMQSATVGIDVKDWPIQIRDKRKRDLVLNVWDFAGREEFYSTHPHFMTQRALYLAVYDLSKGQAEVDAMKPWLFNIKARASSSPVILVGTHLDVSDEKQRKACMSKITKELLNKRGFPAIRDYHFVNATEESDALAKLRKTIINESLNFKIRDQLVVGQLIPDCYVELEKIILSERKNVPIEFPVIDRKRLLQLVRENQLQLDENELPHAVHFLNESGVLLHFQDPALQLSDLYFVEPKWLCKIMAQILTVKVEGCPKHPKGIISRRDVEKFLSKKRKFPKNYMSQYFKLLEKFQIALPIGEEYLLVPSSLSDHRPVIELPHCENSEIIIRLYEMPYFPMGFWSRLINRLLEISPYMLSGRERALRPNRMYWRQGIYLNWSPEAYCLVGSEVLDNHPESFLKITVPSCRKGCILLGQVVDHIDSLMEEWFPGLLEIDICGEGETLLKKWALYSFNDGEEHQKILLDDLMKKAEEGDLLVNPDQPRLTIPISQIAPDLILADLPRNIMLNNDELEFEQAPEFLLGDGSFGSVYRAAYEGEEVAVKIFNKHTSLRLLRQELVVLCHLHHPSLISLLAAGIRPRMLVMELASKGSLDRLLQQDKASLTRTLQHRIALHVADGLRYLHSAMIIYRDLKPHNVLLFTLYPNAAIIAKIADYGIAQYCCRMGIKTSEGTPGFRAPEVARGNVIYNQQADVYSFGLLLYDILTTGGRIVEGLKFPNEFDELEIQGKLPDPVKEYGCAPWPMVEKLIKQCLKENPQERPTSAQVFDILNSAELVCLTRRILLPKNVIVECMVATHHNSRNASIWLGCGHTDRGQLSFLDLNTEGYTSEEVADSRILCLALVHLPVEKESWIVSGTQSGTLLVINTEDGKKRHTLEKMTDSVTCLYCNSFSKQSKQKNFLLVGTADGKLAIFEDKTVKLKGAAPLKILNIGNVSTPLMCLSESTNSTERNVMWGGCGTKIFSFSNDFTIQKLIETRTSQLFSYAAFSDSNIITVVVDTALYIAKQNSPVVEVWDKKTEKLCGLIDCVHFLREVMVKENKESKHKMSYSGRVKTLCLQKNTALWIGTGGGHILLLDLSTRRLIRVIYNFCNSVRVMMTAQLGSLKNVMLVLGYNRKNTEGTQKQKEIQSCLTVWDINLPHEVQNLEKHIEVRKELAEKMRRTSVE
Chain of MYLK (Q15746 whole entry): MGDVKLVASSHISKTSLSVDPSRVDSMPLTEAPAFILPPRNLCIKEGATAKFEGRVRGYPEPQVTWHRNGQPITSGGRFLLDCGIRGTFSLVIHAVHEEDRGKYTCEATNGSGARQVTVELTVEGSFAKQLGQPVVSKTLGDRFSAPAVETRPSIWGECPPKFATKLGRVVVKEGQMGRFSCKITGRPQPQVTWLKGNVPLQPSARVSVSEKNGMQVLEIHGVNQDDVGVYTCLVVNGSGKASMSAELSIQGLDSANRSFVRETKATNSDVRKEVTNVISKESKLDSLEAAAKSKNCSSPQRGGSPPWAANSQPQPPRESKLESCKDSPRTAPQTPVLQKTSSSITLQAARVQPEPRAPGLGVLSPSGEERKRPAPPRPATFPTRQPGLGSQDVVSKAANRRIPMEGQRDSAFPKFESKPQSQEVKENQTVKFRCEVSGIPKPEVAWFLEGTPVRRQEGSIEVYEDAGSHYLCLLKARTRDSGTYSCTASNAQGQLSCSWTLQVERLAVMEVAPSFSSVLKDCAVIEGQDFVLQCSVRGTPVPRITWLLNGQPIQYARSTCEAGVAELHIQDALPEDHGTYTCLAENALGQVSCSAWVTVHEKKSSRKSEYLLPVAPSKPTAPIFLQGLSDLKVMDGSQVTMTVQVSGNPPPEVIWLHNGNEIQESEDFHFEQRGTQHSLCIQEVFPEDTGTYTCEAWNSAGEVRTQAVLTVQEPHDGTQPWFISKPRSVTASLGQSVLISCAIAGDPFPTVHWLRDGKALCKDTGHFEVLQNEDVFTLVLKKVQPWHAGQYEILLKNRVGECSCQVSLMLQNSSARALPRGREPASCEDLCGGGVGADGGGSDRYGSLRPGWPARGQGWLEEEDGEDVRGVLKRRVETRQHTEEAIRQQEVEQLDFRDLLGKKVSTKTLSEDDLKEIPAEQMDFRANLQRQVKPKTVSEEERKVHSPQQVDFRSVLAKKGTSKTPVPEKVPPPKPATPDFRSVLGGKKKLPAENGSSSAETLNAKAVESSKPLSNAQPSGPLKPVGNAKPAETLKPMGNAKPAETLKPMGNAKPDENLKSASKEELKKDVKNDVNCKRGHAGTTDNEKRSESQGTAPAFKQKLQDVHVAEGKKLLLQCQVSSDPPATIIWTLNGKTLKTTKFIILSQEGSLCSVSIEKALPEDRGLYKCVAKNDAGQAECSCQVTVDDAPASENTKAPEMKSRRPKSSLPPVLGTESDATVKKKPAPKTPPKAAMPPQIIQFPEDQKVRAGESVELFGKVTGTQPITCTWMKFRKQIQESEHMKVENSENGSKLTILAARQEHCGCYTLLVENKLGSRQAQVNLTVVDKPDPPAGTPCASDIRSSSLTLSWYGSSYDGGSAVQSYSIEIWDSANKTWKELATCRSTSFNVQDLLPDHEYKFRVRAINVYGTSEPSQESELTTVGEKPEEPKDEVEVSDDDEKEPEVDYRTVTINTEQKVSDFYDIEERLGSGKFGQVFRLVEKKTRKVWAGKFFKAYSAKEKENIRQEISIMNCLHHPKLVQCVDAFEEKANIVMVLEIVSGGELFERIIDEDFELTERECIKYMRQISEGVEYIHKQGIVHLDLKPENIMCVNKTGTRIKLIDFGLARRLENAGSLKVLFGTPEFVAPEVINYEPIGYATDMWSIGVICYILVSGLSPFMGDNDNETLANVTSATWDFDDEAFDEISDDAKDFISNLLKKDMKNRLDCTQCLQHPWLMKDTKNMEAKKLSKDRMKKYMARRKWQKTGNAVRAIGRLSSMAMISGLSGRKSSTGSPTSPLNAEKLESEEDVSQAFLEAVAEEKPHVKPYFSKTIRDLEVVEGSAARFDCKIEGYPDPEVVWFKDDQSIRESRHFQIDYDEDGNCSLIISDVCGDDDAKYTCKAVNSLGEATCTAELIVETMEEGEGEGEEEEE

Row | Structure (SMILES) | Ki (SYK kinase) [nM] | IC50 (LRRK2) [nM] | IC50 (MYLK) [nM] | inhibition of ITAM signaling (Syk) | activity against JAK kinases (JAK kinases) | BCR signaling ([1]; lymphoma cell lines and primary human lymphoma samples) | apoptosis ([1]; lymphoma cell lines) | clinical result [2]
1 | CN1CCN(C2CCN(c3ccc(Nc4nc(-c5cccs5)nc5cn[nH]c45)cc3)CC2)CC1 [Example #290, N-(4-(4-(4-methylpiperazin-1-yl)piperidin-1-yl)phenyl)-5-(thiophen-2-yl)-1H-pyrazolo[4,3-d]pyrimidin-7-amine] | < 10 | 100 to 1000 | < 5000 |  |  |  |  | 
2 | c1csc(-c2nc(Nc3ccc(N4CCN(C5CC5)CC4)cc3)c3[nH]ncc3n2)c1 [Example #293, N-(4-(4-cyclopropylpiperazin-1-yl)phenyl)-5-(thiophen-2-yl)-1H-pyrazolo[4,3-d]pyrimidin-7-amine] | < 10 | 100 to 1000 | < 5000 |  |  |  |  | 
3 | O=C(c1ccc(Nc2nc(-c3cccs3)nc3cn[nH]c23)cc1)N1CCOCC1 [Example #294, morpholino(4-((5-(thiophen-2-yl)-1H-pyrazolo[4,3-d]pyrimidin-7-yl)amino)phenyl)methanone] | 10 to 100 | 100 to 1000 | < 5000 |  |  |  |  | 
4 | c1csc(-c2nc(Nc3ccc(CN4CCOCC4)cc3)c3[nH]ncc3n2)c1 [Example #295, N-(4-(morpholinomethyl)phenyl)-5-(thiophen-2-yl)-1H-pyrazolo[4,3-d]pyrimidin-7-amine] | < 10 | 100 to 1000 | < 5000 |  |  |  |  | 
5 | COc1cc(Nc2ncc(F)c(Nc3ccc4c(n3)NC(=O)C(C)(C)O4)n2)cc(OC)c1OC [Example R406] |  |  |  | inhibit ITAM signaling | active | attenuates BCR signaling | resulting in apoptosis of the former | favorable results
